Assays:
Format in all cases: cell-based
[1] = system: Candida parapsilosis; test: Inhibition effect in model media (MIC), optical density growth reading; details: 30° C., weight/volume
[2] = system: Penicillium crustosum; test: as above; details: Malt water, 30° C., weight/volume
Experimental: (§1) The inhibition effect of Hydroxyacetaldehyde was tested in model media at various concentration levels and at 3 different pH's and against various micro-organisms at 30° C.
(§2) The medium was Brain Heart Infusion Broth (BHI) or Malt Water. Tested were: • Bacillus subtilus in BHI • Echerichia coli in BHI • Staphylococcus aureus in BHI • Saccharomyces cerevisieae in Malt water • Penicillium crustosum in Malt water
(§3) The pH of the media was set in the medium to 4.5 5.0 and 6.0, respectively. Hydroxyacetaldehyde concentrations were: 0, 0.0125, 0.025, 0.05, 0.1, 0.2, and 0.4%. Growth was recorded by an automated Optical Density reader (NEPHELOstar Galaxy of the manufacturer BMG).

[3] = system: Bacillus subtilus; test: as above; details: BHI, 30° C., weight/volume
Experimental: as §1, §2, §3

[4] = system: Staphylococcus aureus; test: as above; details: BHI, 30° C., weight/volume
Experimental: as §1, §2, §3

[5] = system: Echerichia coli; test: as above; details: BHI, 30° C., weight/volume
Experimental: as §1, §2, §3

[6] = system: Zygosaccharomyces bailii; test: Inhibition effect in Ice Tea (MIC); details: Lipton Ice Tea with apple juice, 25° C.
Experimental: (§4) The inhibition effect of Hydroxyacetaldehyde was tested in Ice Tea at various concentrations, at 2 different pH's and against 2 micro-organisms at 25° C. Tested were: • Zygosaccharomyces bailii • Talaromyces trachyspermus
(§5) The medium was Lipton Ice Tea with apple juice. The pH of the medium was set at 4.5 and 6.0, respectively. Hydroxyacetaldehyde concentrations were: 0, 0.0125, 0.025, 0.05, 0.1, 0.2, 0.4 and 0.8%. Growth was recorded by an automated optical density reader NEPHELOstar Galaxy of the manufacturer BMG. The MIC (Minimal Inhibition Concentration) for the different micro-organisms were: […]

[7] = system: Talaromyces trachyspermus; test: Inhibition effect in Ice Tea (MIC); details: Lipton Ice Tea with apple juice, 25° C.
Experimental: as §4, §5

[8] = system: Bacteria; test: Reduction of organisms in corrugated board pulp; details: pulp at 20° C.
Experimental: (§6) Contamination with moulds and bacteria is known to be serious problem for corrugated board. Hydroxyacetaldehyde was added to the corrugated board pulp during production to determine if it would be possible to produce a mould-free corrugated board.
(§7) To 40 gram of small pieces of cut corrugated board 300 ml of sterile water was added. This was mixed to form a pulp. This pulp was divided into 3 portions to which 0, 0.5 and 2% hydroxyacetaldehyde was added. The pulp was incubated at 20° C. and after 0, 2, 5 and 22 hours the number of organisms per gram pulp was measured. The reduction factor (cfu at to/cfu at tn) was as follows: […]

[9] = system: Moulds; test: Reduction of organisms in corrugated board pulp; details: pulp at 20° C.
Experimental: as §6, §7

[10] = 0.5 hydroxyacetaldehyde, incubation 2 hours
[11] = 0.5 hydroxyacetaldehyde, incubation 5 hours
[12] = 0.5 hydroxyacetaldehyde, incubation 22 hours
[13] = 2% hydroxyacetaldehyde, incubation 2 hours
[14] = 2% hydroxyacetaldehyde, incubation 5 hours
[15] = 2% hydroxyacetaldehyde, incubation 22 hours

In the case of `O=CCO` [Hydroxyacetaldehyde], the “MIC (Minimal Inhibition Concentration)” value ([1]; pH 4.5) is reported as 0.2%, the “MIC (Minimal Inhibition Concentration)” value ([1]; pH 6) is reported as 0.2% and the “MIC (Minimal Inhibition Concentration)” value ([2]; pH 4.5) is reported as 0.1%. For the same compound, the “MIC (Minimal Inhibition Concentration)” value ([2]; pH 6) was 0.1%, the “MIC (Minimal Inhibition Concentration)” value ([3]; pH 4.5) was 0.1% and the “MIC (Minimal Inhibition Concentration)” value ([3]; pH 5) was 0.1%. For the same compound, the “MIC (Minimal Inhibition Concentration)” value ([3]; pH 6) was 0.1%, the “MIC (Minimal Inhibition Concentration)” value ([4]; pH 4.5) was 0.05% and the “MIC (Minimal Inhibition Concentration)” value ([4]; pH 5) was 0.05%. The “MIC (Minimal Inhibition Concentration)” value ([4]; pH 6) was 0.05%, the “MIC (Minimal Inhibition Concentration)” value ([5]; pH 4.5) was 0.1% and the “MIC (Minimal Inhibition Concentration)” value ([5]; pH 5) was 0.1%. For the same compound, the “MIC (Minimal Inhibition Concentration)” value ([5]; pH 6) was 0.1%, the “MIC (Minimal Inhibition Concentration)” value ([6]; pH 4.5) was 0.8% and the “MIC (Minimal Inhibition Concentration)” value ([6]; pH 6) was 0.8%. The “MIC (Minimal Inhibition Concentration)” value ([7]; pH 4.5) was 0.1%, the “MIC (Minimal Inhibition Concentration)” value ([7]; pH 6) was 0.1% and the “reduction factor (cfu at to/cfu at tn)” value [8, 10] was 3.8. For the same compound, the “reduction factor (cfu at to/cfu at tn)” value [8, 11] was 4.1, the “reduction factor (cfu at to/cfu at tn)” value [8, 12] was 25.5 and the “reduction factor (cfu at to/cfu at tn)” value [8, 13] was 7.4. For the same compound, the “reduction factor (cfu at to/cfu at tn)” value [8, 14] was 26.4, the “reduction factor (cfu at to/cfu at tn)” value [8, 15] was >1.4e4 and the “reduction factor (cfu at to/cfu at tn)” value [9, 10] was 20. The “reduction factor (cfu at to/cfu at tn)” value [9, 11] was 40, the “reduction factor (cfu at to/cfu at tn)” value [9, 12] was >40 and the “reduction factor (cfu at to/cfu at tn)” value [9, 13] was >40. The “reduction factor (cfu at to/cfu at tn)” value [9, 14] was >40 and the “reduction factor (cfu at to/cfu at tn)” value [9, 15] was >40.

— patent US20090111894A1, “Method of Preventing Microbial Growth” (priority 2005, published 2009)
